# Entries after “also recorded” stand apart in the source; their conditions may differ. Like-named read-outs stand apart in the source and are kept apart here. Non-standard residues stand in square brackets, D forms with d. Residues, ends and D or L forms follow the SMILES beside them. *: point of attachment. Dolaproine = CO[C@@H]([C@@H]1CCCN1)[C@@H](C)C(=O)O; Dil = CC[C@H](C)[C@H](NC)[C@@H](CC(=O)O)OC; X1 = C[C@@H](N*)[C@@H](O)c1ccccc1; NMeV = CN[C@H](C(=O)O)C(C)C
# Legend:
# [1] = tested on: PANC-1 tumor xenografts; assay: In vivo tumor xenograft growth with or without IR; parameters: species or system mice
# Description: HCT-116 or PANC-1 tumor xenografts were established and tumor growth was measured with digital calipers. Tumor volume was calculated using the formula as ½*Length*Width^2. Mice were randomized into groups once the average tumor volume reached 250 mm^3. Mice were assigned to groups: Vehicle, ACPP-cRGD-MMAE, fractionated IR or the combination. ACPP-cRGD-MMAE lyophilized powder was suspended in sterile deionized water just prior to tail vein injection. MMAE doses and IR fractionation are as indicated in the Results.
# HCT-116 or PANC-1 tumor growth was measured with digital calipers. Tumor volume was calculated using the formula as ½×length×width^2. Mice were randomized into groups as indicated in Results once the average tumor volume reached >200 mm^3. Free MMAE was injected on an equimolar basis to ACPP-cRGD-MMAE.
# [2] = tested on: CHK1 (pS345); assay: Immunoblot for DNA damage checkpoint activation in HCT-116 cells; type: cell-based, Human; conditions: MMAE 24 hours, then 6 Gy
# Description: (§1) MMAE- and IR-treated cells were harvested and lysed in RIPA buffer with protease and phosphatase inhibitors (Roche). Thirty micrograms of lysate underwent electrophoresis using 4% to 12% Bis-Tris gels (Life Technologies), transferred to polyvinylidene difluoride (PVDF) membranes, and incubated with indicated primary antibodies (Cell Signaling Technology). Blots were developed by ECL (Pierce).
# Because MMAE reduced clonogenic cell survival following IR, we tested whether MMAE increased apoptosis in irradiated cells. HCT-116 cells were treated with MMAE for 24 hours followed by IR. Cells were collected 24 hours after IR and the sub-G1 population (apoptotic) was measured. […] Because MMAE increased DNA double-strand breaks in irradiated cells (FIG. 34), we then evaluated whether MMAE altered the DNA damage response in irradiated cells. HCT-116 cells were treated with MMAE for 24 hours followed by 6 Gy. Cells were collected 1 hour after IR, and activation of the DNA damage checkpoint proteins CHK1 (pS345) and CHK2 (pT68) was ascertained (FIG. 36B). […] Upon DNA damage, histone H2A becomes phosphorylated at S139, γH2AX.
# [3] = tested on: HCT-116 cells; assay: Alamar Blue cell viability assay; type: cell-based, Human
# Description: Alamar Blue (also known as resazurin) was added to the cells and allowed to incubate for 2 hrs at 37° C. Plates were analyzed using a plate reader with fluorescence measured at 560 nm. For irradiated cells, cells were treated with MMAE overnight followed by 6 Gy.
# Alamar Blue (resazurin) was added to the cells and allowed to incubate for 2 hrs at 37° C. Plates were analyzed using a plate reader with fluorescence measured at 560 nm.
# Cells were plated in 96-well plates and exposed to MMAE or paclitaxel for 72 hours and analyzed at 560 nm. For irradiated cells, cells were treated with MMAE overnight followed by 6 Gy.
# [4] = tested on: HCT-116 cells; assay: Neutral comet assay (DNA double strand breaks); type: cell-based, Human
# Description: (§2) Cells were treated for 24 hours with indicated doses of MMAE and then irradiated with 6 Gy. Cells were harvested 15 minutes post IR, suspended in agarose gel and lysed per assay directions (Trevigen). Samples underwent electrophoresis under neutral conditions and were then stained with Sybr Green. Comet tails were counted in multiple fields (>60 cells per sample) and analyzed using CometScore (TriTek Corp).
# (§3) Cells were treated for indicated length and doses of MMAE followed by 6 Gy. Cells were harvested 15 minutes after IR and underwent neutral electrophoresis (Trevigen). Comet tails were counted in multiple fields (>60 cells per sample) and analyzed using CometScore (TriTek Corp).
# [5] = tested on: 779E cells; assay: Neutral comet assay (DNA double strand breaks); type: cell-based, Human; conditions: MMAE overnight in combination with IR
# Description: as §2, §3
# [6] = tested on: XPA-1 cells; assay: Neutral comet assay (DNA double strand breaks); type: cell-based; conditions: MMAE overnight, then IR
# Description: as §3
# [7] = tested on: HCT-116 cells; assay: Cell cycle analysis by FACS with PI staining; type: cell-based, Human
# Description: (§4) Cells were treated with 0, 1, 2, or 5 nM MMAE for 24 hours and then fixed in methanol. Cells were treated with RNAse, stained with propidium iodide and analyzed by FACS using FloJo software.
# (§5) Cells were treated with MMAE for 24 hours and then fixed in methanol. Cells were treated with RNAse, stained with propidium iodide (PI), and analyzed by FACS using FlowJo software.
# [8] = tested on: PANC-1 cells; assay: Cell cycle analysis by FACS with PI staining; type: cell-based, Human; conditions: 2 nmol/L MMAE, 24 hours
# Description: as §4, §5
# [9] = tested on: CAL-27 tumor xenografts; assay: In vivo tumor xenograft growth with or without IR; parameters: species or system mice; conditions: day 0 iv: 0.5 nmoles antibody or 2 nmoles free MMAE; no IR
# Description: CAL-27 tumor xenografts were established and tumor growth was measured with digital calipers. Tumor volume was calculated using the formula as ½*Length*Width^2. Mice were randomized into groups once the average tumor volume reached >150 mm^3. Mice were assigned to indicated groups in the Results. […] Free MMAE was injected on an equimolar basis to ACPP-cRGD-MMAE in final volume of 3% DMSO. MMAE doses and IR fractionation are as indicated in the Results.
# [10] = tested on: cyclin B; assay: Immunoblot for cell phase-specific cyclins in HCT-116 cells; type: cell-based, Human; conditions: 5 nmol/L MMAE, 24-hour exposure
# Description: as §1
# Because MMAE blocks cells in the radiosensitive G2-M phase of the cell cycle, we tested whether MMAE specifically interacted with IR. We hypothesized that while a short exposure to MMAE would not influence radiosensitivity, prolonged MMAE exposure with cells accumulating in G2-M would increase sensitivity to IR. DNA double-stand breaks are a hallmark of IR damage and can be measured by neutral comet assay. HCT-116 cells were treated with 5 nmol/L MMAE for varying lengths of time (0, 2, 4, or 24 hours) and then irradiated (FIG. 34A).
smiles,measurement,setting,value
"CC[C@H](C)[C@@H]([C@@H](CC(=O)N1CCC[C@H]1[C@H](OC)[C@@H](C)C(=O)N[C@H](C)[C@@H](O)c1ccccc1)OC)N(C)C(=O)[C@@H](NC(=O)[C@@H](NC)C(C)C)C(C)C [MMAE, monomethyl auristatin E] (H-[NMeV]V[Dil][Dolaproine]-X1)","V(end)/V(0) ≤ 1, PANC-1, expt 1","[1]; day 30, + IR",0%
same,"V(end)/V(0) ≤ 1, PANC-1, expt 1","[1]; day 30, no IR",0%
same,tumor xenografts smaller than starting tumor volume,"[1]; expt 1, day 20, no IR",None
same,tumor xenografts less than or equal to starting tumor volume,"[1]; expt 1, day 20, with IR",4/10
same,tumor regression vs IR or free MMAE alone,"[1]; expt 1: 6 nmoles days 0 and 1 plus IR 3 Gy days 1 and 2, listed as free MMAE",increased tumor xenograft regression; also recorded: profound tumor xenograft regression
same,average tumor volume relative to untreated controls,"[1]; expt 1: iv days 0 and 1, 6 nmoles/day, no IR, day 30",75%
same,tumor growth vs untreated control,"[1]; expt 1: iv days 0 and 1, 6 nmoles/day, no IR, listed as free MMAE","modest, but statistically significant growth delay; also recorded: small but statistically significant growth delay"
same,CHK1 activation in irradiated cells,[2],enhanced CHK1 activation
same,IC50,"[3]; 72 hours exposure (Example 3), read-out: IC50",1.7 nM
same,IC50,"[3]; 72 hours exposure, read-out: IC50",1.66 nM
same,IC50,"[3]; MMAE alone, no IR (Example 3), read-out: IC50 for MMAE",1.6 nM
same,IC50,"[3]; MMAE alone, no IR, continuous exposure, viability 72 hours after initiation, read-out: IC50 for MMAE",1.58 nM
same,IC50,"[3]; MMAE and 6 Gy IR (Example 3), read-out: IC50 for MMAE",0.8 nM
same,IC50,"[3]; MMAE overnight then 6 Gy IR, continuous exposure, viability at 72 hours, read-out: IC50 for MMAE",0.78 nM
same,comet tail length vs IR alone,"[4]; 1 nM MMAE 24 hours, then 6 Gy",did not significantly increase; also recorded: did not increase DNA damage over IR alone
same,comet tail length vs IR alone,"[4]; 5 nM MMAE 24 hours, then 6 Gy",significant increase; also recorded: significantly increased comet tail length
same,comet tail length vs IR alone,"[4]; 5 nmol/L MMAE for 2 or 4 hours, then IR",did not increase comet tail length
same,comet tail length vs vehicle,"[4]; non-irradiated, 1 or 5 nM MMAE overnight",no significant effect
same,comet tail length,[5],significantly increased comet tail length
same,comet tail length,[6],significantly increased comet tail length
same,cell-cycle profile,"[7]; 1 nmol/L MMAE, 24 hours",did not alter the cell-cycle profile
same,cells blocked in G2/M,"[7]; 5 nM (5 nmol/L) MMAE, 24 hrs",50%
same,cells blocked in G2-M,[8],50%
same,"tumor growth, non-irradiated tumors",[9],delayed tumor growth
same,accumulation of cyclins,[10],specific accumulation of the G2-M cyclin B

# From US10596259B2, “Tumor radiosensitization with monomethyl auristatin E (MMAE) and derivatives thereof” (The Regents of the University of California, priority 2015, dated 2020)
